Results reported in patent US10351500B2, “Method of using of dihydro-resveratrol or its stilbenoid derivatives and/or chemical variants as antimicrobial agents” (Hong Kong Baptist University, priority 2015, dated 2019).

Assays:
[1] = test system: pancreatic acinar cells; format: cell-based; conditions: rat, 24 h
Experimental: Functional intact acini were dissociated from pancreatic tissue using collagenase digestion with mild shearing forces. Acini were cultured in Dulbecco's modification of Eagle's medium (GIBCO) supplemented with 5% fetal bovine serum (GIBCO), 1% penicillin-streptomycin (GIBCO) in a 5% CO2, 95% air humidified atmosphere at 37° C. […] MTT reagent was added to the cells at the end of the 24-hour treatment period. After a 3-hour reaction time, MTT products were dissolved in DMSO and absorbance at 570 nm was taken.

[2] = test system: LTC-14 cells (pancreatic stellate cells); assay: Western blotting of α-SMA and FN1 in TGF-β-challenged LTC-14 PSCs; format: cell-based, rat
Experimental: LTC-14 cells were cultured at 37° C. under a humidified condition of 95% air and 5% CO2 in IMDM supplemented with 10% fetal bovine serum (FBS). Cells used in all the experiment were among passages 9 to 25. LTC-14 cells were seeded at a density of 1×10^5/well in a 12-well plate, and incubated with recombinant TGF-β at 5 ng/mL with dihydro-resveratrol at 0, 1, 5, 10 and 20 μg/mL in IMDM supplemented with 0.2% FBS for 24 hours. Cells were then harvested for protein extraction and Western blotting analysis or immunofluorescent staining.
Total proteins of the LTC-14 cells are extracted using RIPA lysis buffers containing protease inhibitors. Cell lysates were loaded and separated by SDS-polyacrylaminde gel electrophoresis. After wet electroblotting, proteins were transferred onto PVDF membranes (Bio-rad), blocked with 5% non-fat milk, probed with antibodies and visualized by utilization of an ECL kit (GE Healthcare).
Control was not treated with Resv or any stilbenoids. Total proteins were extracted and analyzed using Western blotting.
Total proteins were extracted and analyzed using Western blotting.

[3] = ABTS radical decolorization assay (antioxidant capacity); format: biochemical; conditions: 15 min, 734 nm
[4] = test system: human embryonic kidney HEK293 cell line; assay: MTT cell viability assay, HEK293; format: cell-based
Experimental: The human colorectal carcinoma HCT-116 cell line, human pancreatic ductal adenocarcinoma PANC-1 cell line, human melanoma A375 cell line and human embryonic kidney HEK293 cell line were purchased from the American Type Culture Collection. Cells were cultured in high glucose DMEM growth medium supplemented with 10% fetal bovine serum, penicillin and streptomycin (100 U) in a humidified atmosphere of 5% CO2, 95% air at 37° C. Upon the addition of dihydro-resveratrol (D-res) to the HCT-116, PANC-1, A375 or HEK293 cells seeded at a density of 8000 cells per well in a 96-well plate format, the viability of the testing cells was determined 24 h post treatment using the (3-(4,5-dimethylthiazol-2-yl)-2,5-diphenyltetrazolium bromide) tetrazolium (MTT) reduction assay and expressed as growth inhibition of 50% (GI50, Table 6).

[5] = test system: PANC-1 human pancreatic ductal adenocarcinoma cells; assay: cell migration assay, PANC-1; format: cell-based; conditions: PANC-1, 25 μM, 24-h treatment
[6] = test system: Trichophyton rubrum; assay: anti-fungal growth inhibition, T. rubrum; format: cell-based; conditions: Trichophyton rubrum, 168 h
Experimental: Evaluation of anti-fungal activity. In a single well of the 96-well microplate, 10 μL of the testing compound is added into 190 μL of growth medium (Difco™ YM) containing an overnight culture of Trichophyton rubrum or Trichophyton mentagrophytes at a density of approximately 5×10^5 CFU. The testing compounds include dihydro-resveratrol and DR1 to DR11. Wells incubated with 10 μL 0.5% DMSO only (i.e. no testing compound) are served as the experimental control of fungal growth whilst those incubated with growth medium only (i.e. no fungi) are served as the negative control. […] The percentage of growth inhibition of T. mentagrophytes by the different concentrations of testing compounds is shown in Table 10 whilst the percentage of growth inhibition of T. rubrum is shown in Table 11. The images of T. mentagrophytes culture are captured post treatment of dihydro-resveratrol (100 μM) and DR8 (100 μM) when compared to the growth of experimental control and negative control (FIG. 30).

[7] = test system: Streptococcus mutans; assay: anti-bacterial growth inhibition, S. mutans; format: cell-based; conditions: Streptococcus mutans, 10 h
Experimental: (§1) Evaluation of anti-bacterial activity. In a single well of the 96-well microplate, 10 μL of the testing compound is added into 190 μL of growth medium growth medium (BBL™ Brain Heart Infusion) containing an overnight culture of Streptococcus mutans or Streptococcus sobrinus at a density of approximately 5×10^5 CFU. The testing compounds include dihydro-resveratrol and DR1 to DR11. Wells incubated with 10 μL 0.5% DMSO only (i.e. no testing compound) are served as the experimental control of bacterial growth whilst those incubated with growth medium only (i.e. no bacteria) are served as the negative control. […] The percentage of growth inhibition of S. mutans by the different concentrations of testing compounds is shown in Table 12 whereas the percentage of growth inhibition of S. sobrinus is shown in Table 13. The images of S. mutans culture are captured post treatment of dihydro-resveratrol (100 μM) and DR8 (100 μM) when compared to the growth of experimental control and negative control (FIG. 31).

[8] = test system: Streptococcus sobrinus; assay: anti-bacterial growth inhibition, S. sobrinus; format: cell-based; conditions: Streptococcus sobrinus, 10 h
Experimental: as §1

[9] = read-out: Inhibition rate (25 μM)
[10] = read-out: Inhibition rate (50 μM)
[11] = read-out: Inhibition rate (100 μM)

With Oc1ccc(CCc2cc(O)cc(O)c2)cc1 [Dihydro-resveratrol, trans-3,5,4′-trihydroxybibenzyl] the “cytotoxicity (MTT, mitochondrial metabolic rates)” value [1] was “approximately 500 μM”, the “expression levels of α-SMA and FN1” value ([2]; rat PSCs upon challenge of TGF-β) was “significantly attenuate” and the “anti-fibrotic effect in PSCs among the testing stilbenoids” value ([2]; rat PSCs, TGF-β) was “most potent anti-fibrotic effect”. The “Trolox equivalent (mg), antioxidant capacity” value [3] was 4969.611 mg, the GI50 ([4]; Homo sapiens, HEK293 embryonic kidney (serves as normal control), 24 h, MTT) was 244.1 ± 0.96 µM and the “selectivity implied by GI50 values (carcinoma cells vs HEK293)” value ([4]; Table 6) was “selectivity towards carcinoma cells”. For the same molecule, the migratory ability [5] was “significant reduction in the migratory ability”, the inhibition at 25 µM [6, 9] was 2.75% and the inhibition at 50 µM [6, 10] was 6.84%. It also gave an inhibition at 100 µM [6, 11] of 22.5%, an inhibition at 25 µM [7, 9] of 6.32% and an inhibition at 50 µM [7, 10] of 2.34%. It also gave an inhibition at 100 µM [7, 11] of 2.09%, an inhibition at 25 µM [8, 9] of 10.7% and an inhibition at 50 µM [8, 10] of 8.18%. For the same molecule, the inhibition at 100 µM [8, 11] was 1.49%.
